Measured values published in US7326734B2, “Treatment of bladder and urinary tract cancers” (The Regents of the University of California, priority 2003, dated 2008).

What was measured:
T24 bladder cancer cells = assay: antiproliferative activity against T24 (Grade 3, non-metastatic) bladder cancer cells in vitro; format: cell-based; conditions: for Percentage of inhibition related to control (%) / inhibition at 25 µg/mL / inhibition at 50 µg/mL / inhibition at 100 µM: bladder cancer cells in vitro; for inhibition at 25 µg/mL / inhibition at 50 µg/mL / inhibition at 100 µM: read-out: Percentage of inhibition related to control (%)
Protocol: (§1) Compounds of the present invention were tested for antiproliferative activity against RT24 (Grade I) and T24 (Grade3, non-metastatic) bladder cancer cells in vitro, in accordance with well known standard technique as diagramed in FIG. 5.

[1] = system: RT24 (Grade I) bladder cancer cells; assay: antiproliferative activity against RT24 (Grade I) bladder cancer cells in vitro; format: cell-based; conditions: FIGS. 1-4
Protocol: FIG. 5 is a schematic diagram of the in vitro test for antiproliferative activity referred to in Example 1 below.
as §1

bladder cancer = conditions: cited from earlier work
[2] = system: advanced transitional cell carcinoma of the urothelium; conditions: Phase II, with prophylactic G-CSF, cited from earlier work
[3] = system: human bladder cancer cell lines; conditions: cited from earlier work

**Q.** With 11-Methysticin as the molecule, how does the “Percentage of inhibition related to control (%)” value (T24 bladder cancer cells; 25 μg/ml) read?
**A.** 52.1%

**Q.** With `COc1cc(O)cc(O)c1C(=O)CC(O)c1ccccc1` (stereo not shown) [1-(2,4-Dihydorxy-6-methoxy-phenyl-3-hydorxy-3-phenyl-propan-1-one] as the molecule, how does the “Percentage of inhibition related to control (%)” value (T24 bladder cancer cells; 25 μg/ml) read?
**A.** 42.3%

**Q.** For `COc1ccc(/C=C/C(=O)c2c(OC)cc(O)cc2OC)cc1` [4′-hydroxy-4,2′,6′-trimethoxychalcone], which inhibition at 25 µg/mL (T24 bladder cancer cells; 25 μg/ml) is on record?
**A.** 73.7%

**Q.** With `COc1cc(/C=C/c2ccc(OC)c(OC)c2)oc(=O)c1` [11-Methoxyangonin] as the molecule, how does the “Percentage of inhibition related to control (%)” value (T24 bladder cancer cells; 25 μg/ml) read?
**A.** 26.3%

**Q.** Which inhibition at 50 µg/mL (T24 bladder cancer cells; 50 μg/ml) does the source give for `COc1ccc2cc3[n+](cc2c1OC)CCc1cc2c(cc1-3)OCO2` [Berberine] here?
**A.** 17.9%

**Q.** With `COc1ccc(-c2coc3cc(O)cc(O)c3c2=O)cc1` [Biochanin A] as the molecule, how does the “Percentage of inhibition related to control (%)” value (T24 bladder cancer cells; 25 μg/ml) read?
**A.** 48.7%

**Q.** With `CC(=O)OC[C@@]1(O)C[C@@]23CC[C@@H]4c5ccoc5CC[C@@]4(C)[C@@H]2CC[C@@H]1C3` [Cafestol Acetate] as the molecule, how does the inhibition at 50 µg/mL (T24 bladder cancer cells; 50 μg/ml) read?
**A.** 57.6%

**Q.** For `O=c1oc2cc(O)ccc2c2oc3cc(O)ccc3c12` [Coumestrol], which inhibition at 50 µg/mL (T24 bladder cancer cells; 50 μg/ml) is on record?
**A.** 30%

**Q.** For `COc1cc(/C=C/C(=O)CC(=O)/C=C/c2ccc(O)c(OC)c2)ccc1O` [Curcumin], which inhibition at 50 µg/mL (T24 bladder cancer cells; 50 μg/ml) is on record?
**A.** 69.7%

**Q.** For `O=c1c(-c2ccc(O)cc2)coc2cc(O)ccc12` [Daidzein], which inhibition at 50 µg/mL (T24 bladder cancer cells; 50 μg/ml) is on record?
**A.** 39.3%

**Q.** Which “Percentage of inhibition related to control (%)” value (T24 bladder cancer cells; 25 μg/ml) does the source give for `O=C(O[C@@H]1Cc2c(O)cc(O)cc2O[C@@H]1c1cc(O)c(O)c(O)c1)c1cc(O)c(O)c(O)c1` [EGCG] here?
**A.** 34%

**Q.** For `O=c1oc2c(O)c(O)cc3c(=O)oc4c(O)c(O)cc1c4c23` [Ellagic acid], which inhibition at 100 µM (T24 bladder cancer cells) is on record?
**A.** 66%

**Q.** With `COc1ccc(/C=C/C(=O)c2c(O)cc(OC)cc2OC)cc1` [Flavokawain A, 2′-hydroxy-4,4′,6′-trimethoxychalcone] as the molecule, how does the “inhibitory effects on proliferation” value (T24 bladder cancer cells; T24 (Grade 3, non-metastatic) cells in vitro, FIGS. 1-4) read?
**A.** significant inhibitory effects

**Q.** What about the “inhibitory effects on proliferation” value [1] of the same molecule?
**A.** significant inhibitory effects

**Q.** Which median survival (bladder cancer; clinical trials) does the source give for `Nc1ccn([C@@H]2O[C@H](CO)[C@@H](O)C2(F)F)c(=O)n1` [Gemcitabine] here?
**A.** less than 12 months

**Q.** What about the response rate (bladder cancer; clinical trials) of the same molecule?
**A.** less than 30%

**Q.** What about the toxicity (bladder cancer; phase II trials) of the same molecule?
**A.** in general mild and reversible

**Q.** Which inhibition at 25 µg/mL (T24 bladder cancer cells; 25 μg/ml) does the source give for `O=c1c(-c2ccc(O)cc2)coc2cc(O)cc(O)c12` [Genistein] here?
**A.** 48.7%

**Q.** For `O=c1c(O)c(-c2ccc(O)cc2)oc2cc(O)cc(O)c12` [Kaempferol], which inhibition at 50 µg/mL (T24 bladder cancer cells; 50 μg/ml) is on record?
**A.** 60%

**Q.** With `C[C@@]12C=Cc3occc3[C@H]1CC[C@@]13C[C@@H](CC[C@H]12)[C@@](O)(CO)C3` [Kahweol] as the molecule, how does the “Percentage of inhibition related to control (%)” value (T24 bladder cancer cells; 50 μg/ml) read?
**A.** 61.2%

**Q.** Which inhibition at 25 µg/mL (T24 bladder cancer cells; 25 μg/ml) does the source give for `COC1=CC(=O)O[C@@H](/C=C/c2ccccc2)C1` [Kawain] here?
**A.** 33.6%

**Q.** With `O=c1c(O)c(-c2ccc(O)cc2O)oc2cc(O)cc(O)c12` [Morin] as the molecule, how does the inhibition at 50 µg/mL (T24 bladder cancer cells; 50 μg/ml) read?
**A.** 34%

**Q.** With `O=C1C[C@@H](c2ccc(O)cc2)Oc2cc(O)cc(O)c21` [Naringenin] as the molecule, how does the inhibition at 50 µg/mL (T24 bladder cancer cells; 50 μg/ml) read?
**A.** 20%

**Q.** For `C[C@@H]1O[C@@H](O[C@H]2[C@H](Oc3cc(O)c4c(c3)O[C@H](c3ccc(O)cc3)CC4=O)O[C@H](CO)[C@@H](O)[C@@H]2O)[C@H](O)[C@H](O)[C@H]1O` [Naringin], which inhibition at 50 µg/mL (T24 bladder cancer cells; 50 μg/ml) is on record?
**A.** 29%

**Q.** With `Oc1cc(O)c2c(c1)O[C@H](c1ccc(O)c(O)c1)[C@H](O)[C@H]2c1c(O)cc(O)c2c1O[C@H](c1ccc(O)c(O)c1)[C@@H](O)C2` [Procyanidin B1] as the molecule, how does the “Percentage of inhibition related to control (%)” value (T24 bladder cancer cells; 25 μg/ml) read?
**A.** 44.2%

**Q.** With `O=c1c(O)c(-c2ccc(O)c(O)c2)oc2cc(O)cc(O)c12` [Quercetin] as the molecule, how does the inhibition at 50 µg/mL (T24 bladder cancer cells; 50 μg/ml) read?
**A.** 53.3%

**Q.** With `Oc1ccc(C=Cc2cc(O)cc(O)c2)cc1` [Resveratrol] as the molecule, how does the inhibition at 50 µg/mL (T24 bladder cancer cells; 50 μg/ml) read?
**A.** 70.6%

**Q.** For `O=c1c2ccccc2nc2n1CCc1c-2[nH]c2ccccc12` [Rutaecurpine], which “Percentage of inhibition related to control (%)” value (T24 bladder cancer cells; 50 μg/ml) is on record?
**A.** 76%

**Q.** With `C[C@@H]1O[C@@H](OC[C@H]2O[C@@H](Oc3c(-c4ccc(O)c(O)c4)oc4cc(O)cc(O)c4c3=O)[C@H](O)[C@@H](O)[C@@H]2O)[C@H](O)[C@H](O)[C@H]1O` [Rutin] as the molecule, how does the inhibition at 100 µM (T24 bladder cancer cells) read?
**A.** 47.7%

**Q.** For `COc1cc(C2Oc3cc([C@H]4Oc5cc(O)cc(O)c5C(=O)[C@@H]4O)ccc3OC2CO)ccc1O` (stereo partly shown) [Silibinin], which inhibition at 100 µM (T24 bladder cancer cells) is on record?
**A.** 40%

**Q.** Which inhibition at 50 µg/mL (T24 bladder cancer cells; 50 μg/ml) does the source give for `O=C1c2c(O)cc(O)cc2O[C@H](c2ccc(O)c(O)c2)[C@H]1O` [Taxifolin] here?
**A.** 36.7%

**Q.** Which results are given for `CC(=O)O[C@H]1C(=O)[C@@]2(C)[C@H]([C@H](OC(=O)c3ccccc3)[C@]3(O)C[C@H](OC(=O)[C@H](O)[C@@H](NC(=O)c4ccccc4)c4ccccc4)C(C)=C1C3(C)C)[C@]1(OC(C)=O)CO[C@@H]1C[C@@H]2O` [paclitaxel]?
**A.** objective response (response rate) ([2]; previously untreated patients): 42%; toxicities [2]: granulocytopenia, anemia, mucositis, and neuropathy; activity against human bladder cancer cell lines [3]: significant activity
